Measurements as given in PubChem BioAssay (NCI).
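Each compound was tested at five concentrations against cells in 96-well plates for 48 hours. GI50: concentration for 50% inhibition of growth. TGI is the concentration that stops growth completely.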

Tests used:
Experiment in all cases: NCI-60 cell line screen, 48 h
[1] = system: SK-MEL-2 melanoma
[2] = system: CAKI-1 renal
[3] = system: HCC-2998 colon
[4] = system: BT-549 breast
[5] = system: MDA-MB-435
[6] = system: SK-MEL-28 melanoma
[7] = system: LOX IMVI melanoma
[8] = system: COLO 205 colon
[9] = system: KM12 colon
[10] = system: NCI/ADR-RES ovarian
[11] = system: OVCAR-5 ovarian
[12] = system: SK-OV-3 ovarian
[13] = system: SW-620 colon
[14] = system: HS 578T breast
[15] = system: SF-539 CNS
[16] = system: SN12C renal
[17] = system: SF-268 CNS
[18] = system: NCI-H226 lung
[19] = system: K-562 leukemia
[20] = system: CCRF-CEM leukemia
[21] = system: MDA-MB-468 breast
[22] = system: ACHN renal
[23] = system: A549 NSCLC
[24] = system: SR leukemia
[25] = system: SF-295 CNS
[26] = system: MCF7 breast
[27] = system: HOP-62 NSCLC
[28] = system: OVCAR-8 ovarian
[29] = system: HL-60(TB) leukemia

Compound COc1cccc(/C=C/C(=O)c2ccc(OC)c(S(N)(=O)=O)c2)c1 has a GI50 [1] of 14 µM, a TGI [1] of 27.3 µM and a GI50 [2] of 4.16 µM. For the same compound, the TGI [2] was 16.1 µM, the GI50 [3] was 2.88 µM and the TGI [3] was 12.1 µM. It also gave a GI50 [4] of 2.52 µM, a TGI [4] of 8.85 µM and a GI50 [5] of 4.66 µM. The TGI [5] was 16.5 µM, the GI50 [6] was 9.04 µM and the TGI [6] was 21.1 µM. The GI50 [7] was 1.64 µM, the TGI [7] was 3.47 µM and the GI50 [8] was 2.93 µM. It also gave a TGI [8] of 11 µM, a GI50 [9] of 2.12 µM and a TGI [9] of 5.11 µM. The GI50 [10] was 2.83 µM, the TGI [10] was 9.24 µM and the GI50 [11] was 2.61 µM. It also gave a TGI [11] of 10.8 µM, a GI50 [12] of 10.1 µM and a TGI [12] of 21.9 µM. For the same compound, the GI50 [13] was 3.16 µM, the TGI [13] was 12 µM and the GI50 [14] was 15.5 µM. It also gave a TGI [14] of 50.6 µM, a GI50 [15] of 1.96 µM and a TGI [15] of 4.56 µM. The GI50 [16] was 2.74 µM, the TGI [16] was 10.9 µM and the GI50 [17] was 4.85 µM. The TGI [17] was 18.9 µM, the GI50 [18] was 2.72 µM and the TGI [18] was 11.1 µM. It also gave a GI50 [19] of 2.12 µM, a TGI [19] of 6.4 µM and a GI50 [20] of 2.51 µM. For the same compound, the TGI [20] was 6.23 µM, the GI50 [21] was 1.99 µM and the TGI [21] was 7.17 µM. It also gave a GI50 [22] of 1.85 µM, a TGI [22] of 3.7 µM and a GI50 [23] of 2.64 µM. The TGI [23] was 11.5 µM, the GI50 [24] was 1.26 µM and the TGI [24] was 4.09 µM. For the same compound, the GI50 [25] was 2.9 µM, the TGI [25] was 12.6 µM and the GI50 [26] was 2.87 µM. For the same compound, the TGI [26] was 12.5 µM, the GI50 [27] was 2.7 µM and the TGI [27] was 10.2 µM. It also gave a GI50 [28] of 2.96 µM, a TGI [28] of 12 µM and a GI50 [29] of 1.88 µM. For the same compound, the TGI [29] was 5.18 µM.
